# Assays:
# [1] = test system: NCI-H23; assay: Cytotoxicity against human NCI-H23 cells assessed as cell growth at 0.01 uM after 48 hrs by sulforhodamine B assay relative to control; type: functional; conditions: NCI-H23, 48 h, read-out: Activity
# [2] = test system: COLO 205; assay: Cytotoxicity against human COLO205 cells assessed as cell growth at 1 uM after 48 hrs by sulforhodamine B assay relative to control; type: functional; conditions: COLO 205, 48 h, read-out: Activity
# [3] = test system: SNB-19; assay: Cytotoxicity against human SNB19 cells assessed as cell growth at 100 uM after 48 hrs by sulforhodamine B assay relative to control; type: functional; conditions: SNB-19, 48 h, read-out: Activity
# [4] = test system: UACC-257; assay: Cytotoxicity against human UACC257 cells assessed as cell growth at 0.1 uM after 48 hrs by sulforhodamine B assay relative to control; type: functional; conditions: UACC-257, 48 h, read-out: Activity
# [5] = test system: ACHN; assay: Cytotoxicity against human ACHN cells assessed as cell growth at 1 uM after 48 hrs by sulforhodamine B assay relative to control; type: functional; conditions: read-out: Activity
# [6] = test system: RXF 393; assay: Cytotoxicity against human RXF393 cells assessed as cell growth at 100 uM after 48 hrs by sulforhodamine B assay relative to control; type: functional; conditions: RXF 393, 48 h, read-out: Activity
# [7] = test system: TK-10; assay: Cytotoxicity against human TK10 cells assessed as cell growth at 0.01 uM after 48 hrs by sulforhodamine B assay relative to control; type: functional; conditions: TK-10, 48 h, read-out: Activity
# [8] = test system: Malme-3M; assay: Cytotoxicity against human MALME-3M cells assessed as cell growth at 100 uM after 48 hrs by sulforhodamine B assay relative to control; type: functional; conditions: read-out: Activity
# [9] = test system: SF-539; assay: Cytotoxicity against human SF539 cells assessed as cell growth at 10 uM after 48 hrs by sulforhodamine B assay relative to control; type: functional; conditions: SF-539, 48 h, read-out: Activity
# [10] = test system: HCT-116; assay: Cytotoxicity against human HCT116 cells assessed as cell growth at 100 uM after 48 hrs by sulforhodamine B assay relative to control; type: functional; conditions: HCT-116, 48 h, read-out: Activity
# [11] = test system: SF-268; assay: Cytotoxicity against human SF268 cells assessed as cell growth at 1 uM after 48 hrs by sulforhodamine B assay relative to control; type: functional; conditions: SF-268, 48 h, read-out: Activity
# [12] = test system: OVCAR-4; assay: Cytotoxicity against human OVCAR4 cells assessed as cell growth at 1 uM after 48 hrs by sulforhodamine B assay relative to control; type: functional; conditions: OVCAR-4, 48 h, read-out: Activity
# [13] = test system: SF-268; assay: Cytotoxicity against human SF268 cells assessed as growth inhibition after 48 hrs by sulforhodamine B assay; type: functional; conditions: SF-268, 48 h; for CC50: read-out: LC50 (the source's name)
# [14] = test system: OVCAR-3; assay: Cytotoxicity against human OVCAR3 cells assessed as cell growth at 100 uM after 48 hrs by sulforhodamine B assay relative to control; type: functional; conditions: OVCAR-3, 48 h, read-out: Activity
# [15] = test system: T47D; assay: Cytotoxicity against human T47D cells assessed as cell growth at 0.1 uM after 48 hrs by sulforhodamine B assay relative to control; type: functional; conditions: read-out: Activity
# [16] = test system: NCI-H460; assay: Cytotoxicity against human NCI-H460 cells assessed as cell growth at 100 uM after 48 hrs by sulforhodamine B assay relative to control; type: functional; conditions: NCI-H460, 48 h, read-out: Activity
# [17] = test system: MDA-MB-231; assay: Cytotoxicity against human MDA-MB-231 cells assessed as growth inhibition after 48 hrs by MTT assay; type: functional, cell-based; conditions: MDA-MB-231, 48 h
# [18] = test system: MDA-MB-468; assay: Cytotoxicity against human MDA-MB-468 cells assessed as cell growth at 0.1 uM after 48 hrs by sulforhodamine B assay relative to control; type: functional; conditions: MDA-MB-468, 48 h, read-out: Activity
# [19] = test system: COLO 205; assay: Cytotoxicity against human COLO205 cells assessed as cell growth at 0.01 uM after 48 hrs by sulforhodamine B assay relative to control; type: functional; conditions: COLO 205, 48 h, read-out: Activity
# [20] = test system: HOP-62; assay: Cytotoxicity against human HOP62 cells assessed as cell growth at 0.1 uM after 48 hrs by sulforhodamine B assay relative to control; type: functional; conditions: HOP-62, 48 h, read-out: Activity
# [21] = test system: OVCAR-4; assay: Cytotoxicity against human OVCAR4 cells assessed as cell growth at 0.01 uM after 48 hrs by sulforhodamine B assay relative to control; type: functional; conditions: OVCAR-4, 48 h, read-out: Activity
# [22] = test system: A549; assay: Cytotoxicity against human A549/ATCC cells assessed as cell growth at 1 uM after 48 hrs by sulforhodamine B assay relative to control; type: functional; conditions: A549, 48 h, read-out: Activity
# [23] = test system: MDA-MB-231; assay: Cytotoxicity against human MDA-MB-231 cells assessed as cell growth at 1 uM after 48 hrs by sulforhodamine B assay relative to control; type: functional; conditions: MDA-MB-231, 48 h, read-out: Activity
# [24] = test system: SW-620; assay: Cytotoxicity against human SW620 cells assessed as cell growth at 1 uM after 48 hrs by sulforhodamine B assay relative to control; type: functional; conditions: SW-620, 48 h, read-out: Activity
# [25] = test system: A549; assay: Cytotoxicity against human A549/ATCC cells assessed as cell growth at 100 uM after 48 hrs by sulforhodamine B assay relative to control; type: functional; conditions: A549, 48 h, read-out: Activity
# [26] = test system: MDA-MB-231; assay: Cytotoxicity against human MDA-MB-231 cells assessed as growth inhibition after 48 hrs by sulforhodamine B assay; type: functional; conditions: MDA-MB-231, 48 h
# [27] = test system: MDA-MB-468; assay: Cytotoxicity against human MDA-MB-468 cells assessed as cell growth at 100 uM after 48 hrs by sulforhodamine B assay relative to control; type: functional; conditions: MDA-MB-468, 48 h, read-out: Activity
# [28] = test system: SK-OV-3; assay: Cytotoxicity against human SKOV3 cells assessed as cell growth at 10 uM after 48 hrs by sulforhodamine B assay relative to control; type: functional; conditions: SK-OV-3, 48 h, read-out: Activity
# [29] = test system: MDA-MB-231; assay: Cytotoxicity against human MDA-MB-231 cells assessed as cell growth at 0.01 uM after 48 hrs by sulforhodamine B assay relative to control; type: functional; conditions: MDA-MB-231, 48 h, read-out: Activity
# [30] = test system: OVCAR-5; assay: Cytotoxicity against human OVCAR5 cells assessed as cell growth at 100 uM after 48 hrs by sulforhodamine B assay relative to control; type: functional; conditions: OVCAR-5, 48 h, read-out: Activity
# [31] = test system: SK-OV-3; assay: Cytotoxicity against human SKOV3 cells assessed as cell growth at 100 uM after 48 hrs by sulforhodamine B assay relative to control; type: functional; conditions: SK-OV-3, 48 h, read-out: Activity
# [32] = test system: NCI-H460; assay: Cytotoxicity against human NCI-H460 cells assessed as cell growth at 1 uM after 48 hrs by sulforhodamine B assay relative to control; type: functional; conditions: NCI-H460, 48 h, read-out: Activity
# [33] = test system: T47D; assay: Cytotoxicity against human T47D cells assessed as growth inhibition after 48 hrs by sulforhodamine B assay; type: functional
# [34] = test system: HL-60(TB); assay: Cytotoxicity against human HL-60(TB) cells assessed as cell growth at 0.01 uM after 48 hrs by sulforhodamine B assay relative to control; type: functional; conditions: HL-60, 48 h, read-out: Activity
# [35] = test system: MDA-MB-435; assay: Cytotoxicity against human MDA-MB-435 cells assessed as growth inhibition after 48 hrs by sulforhodamine B assay; type: functional; conditions: MDA-MB-435, 48 h
# [36] = test system: KM12; assay: Cytotoxicity against human KM12 cells assessed as cell growth at 0.01 uM after 48 hrs by sulforhodamine B assay relative to control; type: functional; conditions: KM12, 48 h, read-out: Activity
compound,measurement,setting,value
COc1cc2c(cc1OC)C(=O)/C(=C/c1cc(-c3ccc4c(c3)OCO4)n[nH]1)C2,growth at 0.01 µM,[1],93%
same,growth at 1 µM,[2],94%
same,growth at 100 µM,[3],-94%
same,growth at 0.1 µM,[4],94%
same,growth at 1 µM,[5],94%
same,growth at 100 µM,[6],-92%
same,growth at 0.01 µM,[7],88%
same,growth at 100 µM,[8],-81%
same,growth at 10 µM,[9],-96%
same,growth at 100 µM,[10],-52%
same,growth at 1 µM,[11],83%
same,growth at 1 µM,[12],57%
same,GI50,[13],1.63 µM
same,TGI,[13],3.37 µM
same,CC50,[13],6.99 µM
same,growth at 100 µM,[14],-90%
same,growth at 0.1 µM,[15],95%
same,growth at 100 µM,[16],-67%
same,IC50,[17],1.6 µM
same,growth at 0.1 µM,[18],83%
same,growth at 0.01 µM,[19],98%
same,growth at 0.1 µM,[20],100%
same,growth at 0.01 µM,[21],101%
same,growth at 1 µM,[22],83%
same,growth at 1 µM,[23],88%
same,growth at 1 µM,[24],66%
same,growth at 100 µM,[25],-65%
same,GI50,[26],1.66 µM
same,LC50,[26],6.18 µM
same,TGI,[26],3.2 µM
same,growth at 100 µM,[27],-86%
same,growth at 10 µM,[28],-18%
same,growth at 0.01 µM,[29],106%
same,growth at 100 µM,[30],-86%
same,growth at 100 µM,[31],-97%
same,growth at 1 µM,[32],82%
same,GI50,[33],1.31 µM
same,LC50,[33],5.62 µM
same,TGI,[33],2.72 µM
same,growth at 0.01 µM,[34],90%
same,GI50,[35],1.73 µM
same,LC50,[35],6.18 µM
same,TGI,[35],3.27 µM
same,growth at 0.01 µM,[36],100%
COc1cc(-c2cc(/C=C/C(=O)c3ccc(N)cc3)[nH]n2)cc(OC)c1OC,growth at 0.01 µM,[1],102%
same,growth at 1 µM,[2],92%
same,growth at 100 µM,[3],-94%
same,growth at 0.1 µM,[4],93%
same,growth at 1 µM,[5],79%
same,growth at 100 µM,[6],-86%
same,growth at 0.01 µM,[7],102%
same,growth at 100 µM,[8],-76%
same,growth at 10 µM,[9],-93%
same,growth at 100 µM,[10],-73%
same,growth at 1 µM,[11],81%
same,growth at 1 µM,[12],62%
same,GI50,[13],1.69 µM
same,TGI,[13],3.93 µM
same,CC50,[13],9.16 µM
same,growth at 100 µM,[14],-93%
same,growth at 0.1 µM,[15],85%
same,growth at 100 µM,[16],-59%
same,IC50,[17],2 µM
same,growth at 0.1 µM,[18],83%
same,growth at 0.01 µM,[19],93%
same,growth at 0.1 µM,[20],92%
same,growth at 0.01 µM,[21],85%
same,growth at 1 µM,[22],80%
same,growth at 1 µM,[23],70%
same,growth at 1 µM,[24],82%
same,growth at 100 µM,[25],-52%
same,GI50,[26],2.06 µM
same,LC50,[26],47.5 µM
same,TGI,[26],12.2 µM
same,growth at 100 µM,[27],-65%
same,growth at 10 µM,[28],-9%
same,growth at 0.01 µM,[29],109%
same,growth at 100 µM,[30],-66%
same,growth at 100 µM,[31],-98%
same,growth at 1 µM,[32],78%
same,GI50,[33],1.42 µM
same,LC50,[33],> 100 µM
same,TGI,[33],4.3 µM
same,growth at 0.01 µM,[34],99%
same,GI50,[35],1.66 µM
same,LC50,[35],6.2 µM
same,TGI,[35],3.21 µM
same,growth at 0.01 µM,[36],102%
